From PubChem BioAssay AID248 (DTP/NCI, 2004)
Inconclusive results and toxic doses are left out. No stated cut-off is given here; in the data, active means T/C of 150% or more; inactive means T/C below 125%.

Tested on: L1210 leukemia ip in BDF1 mice, survival T/C
Test: NCI In Vivo Anticancer Drug Screen. Data for tumor model L1210 Leukemia (intraperitoneal) in B6D2F1 (BDF1) mice
Details: endpoint: mean survival time, higher = longer survival
How it was run: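 Ratio derived from survival: compound-dosed mice over vehicle-dosed mice, all bearing a transplantable tumor.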

[1] = dose: 100.0 mg/kg/injection, schedule: Q04DX003 (ip), vehicle: saline with Tween-80
[2] = dose: 400.0 mg/kg/injection, schedule: Q04DX003 (ip), vehicle: saline with Tween-80
[3] = dose: 100.0 mg/kg/injection, schedule: Q01DX009 (ip), vehicle: Klucel (hydroxypropylcellulose) (HPC)
[4] = dose: 200.0 mg/kg/injection, schedule: Q01DX009 (ip), vehicle: Klucel (hydroxypropylcellulose) (HPC)
[5] = dose: 100.0 mg/kg/injection, schedule: Q01DX001 (ip), vehicle: saline
[6] = dose: 100.0 mg/kg/injection, schedule: Q04DX003 (ip), vehicle: saline
[7] = dose: 200.0 mg/kg/injection, schedule: Q01DX001 (ip), vehicle: saline
[8] = dose: 200.0 mg/kg/injection, schedule: Q04DX003 (ip), vehicle: saline
[9] = dose: 200.0 mg/kg/injection, schedule: Q04DX003 (ip), vehicle: saline with Tween-80
[10] = dose: 100.0 mg/kg/injection, schedule: Q04DX003 (ip), vehicle: Klucel (hydroxypropylcellulose) (HPC)
[11] = dose: 200.0 mg/kg/injection, schedule: Q04DX003 (ip), vehicle: Klucel (hydroxypropylcellulose) (HPC)
[12] = dose: 400.0 mg/kg/injection, schedule: Q04DX003 (ip), vehicle: Klucel (hydroxypropylcellulose) (HPC)
[13] = dose: 50.0 mg/kg/injection, schedule: Q01DX009 (ip), vehicle: Klucel (hydroxypropylcellulose) (HPC)
[14] = dose: 400.0 mg/kg/injection, schedule: Q01DX009 (ip), vehicle: Klucel (hydroxypropylcellulose) (HPC)
[15] = dose: 100.0 mg/kg/injection, schedule: Q04DX002 (ip), vehicle: Klucel (hydroxypropylcellulose) (HPC)
[16] = dose: 200.0 mg/kg/injection, schedule: Q04DX002 (ip), vehicle: Klucel (hydroxypropylcellulose) (HPC)
[17] = dose: 400.0 mg/kg/injection, schedule: Q04DX002 (ip), vehicle: Klucel (hydroxypropylcellulose) (HPC)
[18] = dose: 400.0 mg/kg/injection, schedule: Q04DX003 (ip), vehicle: saline

Measured: T/C

CCCCN1C(=O)c2cccnc2C1=O
inactive: dose: 75.0 mg/kg/injection, schedule: Q04DX003 (ip), vehicle: Klucel (hydroxypropylcellulose) (HPC) 102 % of control | dose: 100.0 mg/kg/injection, schedule: Q01DX001 (ip), vehicle: saline with Tween-80 103 % of control | [1] 103 % of control | dose: 150.0 mg/kg/injection, schedule: Q04DX003 (ip), vehicle: Klucel (hydroxypropylcellulose) (HPC) 96 % of control | dose: 200.0 mg/kg/injection, schedule: Q01DX001 (ip), vehicle: saline with Tween-80 97 % of control | dose: 300.0 mg/kg/injection, schedule: Q04DX003 (ip), vehicle: Klucel (hydroxypropylcellulose) (HPC) 95 % of control | dose: 400.0 mg/kg/injection, schedule: Q01DX001 (ip), vehicle: saline with Tween-80 93 % of control | [2] 95 % of control

Cc1cc(=O)oc2cc(OC(=O)Nc3ccc(F)c([N+](=O)[O-])c3)ccc12
inactive: [3] 101 % of control | [4] 107 % of control

C=C1C(=O)N(C)CCC1C(CC)C(=O)OC (stereo unspecified)
inactive: dose: 25.0 mg/kg/injection, schedule: Q01DX001 (ip), vehicle: saline 101 % of control | dose: 25.0 mg/kg/injection, schedule: Q04DX003 (ip), vehicle: saline 95 % of control | dose: 25.0 mg/kg/injection, schedule: Q04DX003 (oral), vehicle: saline 107 % of control | dose: 50.0 mg/kg/injection, schedule: Q01DX001 (ip), vehicle: saline 88 % of control | dose: 50.0 mg/kg/injection, schedule: Q04DX003 (ip), vehicle: saline 93 % of control | dose: 50.0 mg/kg/injection, schedule: Q04DX003 (oral), vehicle: saline 109 % of control | [5] 98 % of control | [6] 93 % of control | dose: 100.0 mg/kg/injection, schedule: Q04DX003 (oral), vehicle: saline 98 % of control | [7] 93 % of control | [8] 95 % of control | dose: 200.0 mg/kg/injection, schedule: Q04DX003 (oral), vehicle: saline 94 % of control

CN(C)C1(C)CCC2C3CCC4=CC(=O)CCC4(C)C3CCC21C (stereo unspecified)
inactive: dose: 50.0 mg/kg/injection, schedule: Q01DX001 (sc), vehicle: steriod suspending solution 98 % of control | dose: 100.0 mg/kg/injection, schedule: Q01DX001 (sc), vehicle: steriod suspending solution 98 % of control | dose: 200.0 mg/kg/injection, schedule: Q01DX001 (sc), vehicle: steriod suspending solution 95 % of control | dose: 400.0 mg/kg/injection, schedule: Q01DX001 (sc), vehicle: steriod suspending solution 98 % of control

CC(C)(C)c1ccc(N)cc1Br
inactive: dose: 12.5 mg/kg/injection, schedule: Q01DX009 (ip), vehicle: saline with Tween-80 95 % of control | dose: 25.0 mg/kg/injection, schedule: Q01DX009 (ip), vehicle: saline with Tween-80 93 % of control | dose: 50.0 mg/kg/injection, schedule: Q01DX009 (ip), vehicle: saline with Tween-80 97 % of control | [1] 92 % of control | [9] 96 % of control

CSc1ccc(NC(=O)Nc2c(C)cc(C)cc2C)cc1
inactive: dose: 25.0 mg/kg/injection, schedule: Q01DX009 (ip), vehicle: other 92 % of control | dose: 50.0 mg/kg/injection, schedule: Q01DX009 (ip), vehicle: other 93 % of control | dose: 100.0 mg/kg/injection, schedule: Q01DX009 (ip), vehicle: other 102 % of control

CCOc1ccccc1N1C(=O)CSC1=S
inactive: dose: 200.0 mg/kg/injection, schedule: Q04DX002 (ip), vehicle: other 117 % of control | dose: 400.0 mg/kg/injection, schedule: Q04DX002 (ip), vehicle: other 95 % of control

CCNC(=O)C(=O)c1ccccc1NC(C)=O
inactive: [10] 99 % of control | [11] 100 % of control | [12] 96 % of control

CCCCC(=O)N/N=C/c1ccccc1OC
inactive: [5] 102 % of control | [7] 104 % of control

Nc1nc(Cl)nc(C(Cl)(Cl)Cl)c1Cl (tested in a mixture with another compound)
inactive: [13] 94 % of control | [3] 87 % of control | [4] 97 % of control

O=C(NCCCCCCNC(=O)Nc1ccc(C2=NCCN2)cc1)Nc1ccc(C2=NCCN2)cc1
inactive: dose: 62.0 mg/kg/injection, schedule: Q01DX Z (ip), vehicle: carboxymethylcellulose (CMC) 106 % of control | dose: 125.0 mg/kg/injection, schedule: Q01DX Z (ip), vehicle: carboxymethylcellulose (CMC) 92 % of control | dose: 250.0 mg/kg/injection, schedule: Q01DX Z (ip), vehicle: carboxymethylcellulose (CMC) 109 % of control | dose: 500.0 mg/kg/injection, schedule: Q01DX Z (ip), vehicle: carboxymethylcellulose (CMC) 102 % of control

Cc1cccc(C)c1N1C(=O)CCC1=O
inactive: [13] 98 % of control | [3] 96 % of control | [10] 94 % of control | [4] 100 % of control | [11] 97 % of control | [14] 100 % of control | [12] 100 % of control

COc1ccc(/C=C2\C=Nc3ccccc32)cc1
inactive: [15] 94 % of control | [16] 97 % of control | [17] 108 % of control

O=P(c1ccco1)(c1ccco1)c1ccco1
inactive: dose: 25.0 mg/kg/injection, schedule: Q04DX003 (ip), vehicle: saline with Tween-80 101 % of control | dose: 50.0 mg/kg/injection, schedule: Q04DX003 (ip), vehicle: saline with Tween-80 95 % of control

CCOC(=O)/C(O)=C\c1nc(OCC)nc(OCC)c1[N+](=O)[O-]
inactive: dose: 93.8 mg/kg/injection, schedule: Q04DX002 (ip), vehicle: Klucel (hydroxypropylcellulose) (HPC) 95 % of control | dose: 187.5 mg/kg/injection, schedule: Q04DX002 (ip), vehicle: Klucel (hydroxypropylcellulose) (HPC) 95 % of control | dose: 375.0 mg/kg/injection, schedule: Q04DX002 (ip), vehicle: Klucel (hydroxypropylcellulose) (HPC) 100 % of control

COc1ccc(CN(C(C)=O)c2cc(C)c([N+](=O)[O-])cc2OC)cc1OC
inactive: dose: 100.0 mg/kg/injection, schedule: Q01DX009 (ip), vehicle: saline 90 % of control | [6] 93 % of control | dose: 200.0 mg/kg/injection, schedule: Q01DX009 (ip), vehicle: saline 94 % of control | [8] 100 % of control | dose: 400.0 mg/kg/injection, schedule: Q01DX009 (ip), vehicle: saline 96 % of control | [18] 98 % of control

CC(=O)OC1(C2(OC(C)=O)C=CC(=NS(=O)(=O)c3ccccc3)C=C2)C=CC(=NS(=O)(=O)c2ccccc2)C=C1 (stereo unspecified)
inactive: dose: 100.0 mg/kg/injection, schedule: Q01DX009 (ip), vehicle: saline with Tween-80 100 % of control | [1] 94 % of control | dose: 200.0 mg/kg/injection, schedule: Q01DX009 (ip), vehicle: saline with Tween-80 93 % of control | [9] 90 % of control | dose: 400.0 mg/kg/injection, schedule: Q01DX009 (ip), vehicle: saline with Tween-80 97 % of control | [2] 87 % of control

O=S1(=O)CC(c2ccc(F)cc2)Nc2ccccc21 (stereo unspecified)
inactive: [10] 102 % of control | [11] 102 % of control | [12] 97 % of control

CN(C)/C=N/N1CCCCCC1
inactive: [6] 98 % of control

Clc1ccccc1C1OC1c1ccccc1Cl (stereo unspecified)
inactive: [3] 105 % of control | [15] 98 % of control | [4] 102 % of control | [16] 91 % of control | [14] 94 % of control | [17] 102 % of control

CCOP(=O)(Cc1ccc(CP(=O)(OCC)OCC)cc1)OCC
inactive: [6] 105 % of control | [8] 97 % of control | [18] 101 % of control

c1ccc(-c2noc(-c3ccccc3)n2)cc1
inactive: dose: 62.5 mg/kg/injection, schedule: Q04DX002 (ip), vehicle: Klucel (hydroxypropylcellulose) (HPC) 90 % of control | dose: 125.0 mg/kg/injection, schedule: Q04DX002 (ip), vehicle: Klucel (hydroxypropylcellulose) (HPC) 87 % of control | dose: 250.0 mg/kg/injection, schedule: Q04DX002 (ip), vehicle: Klucel (hydroxypropylcellulose) (HPC) 93 % of control
